Assay [1] has as its target T1, Mast cell carboxypeptidase A (Homo sapiens, UniProt P15088).
T1 sequence (P15088 whole entry): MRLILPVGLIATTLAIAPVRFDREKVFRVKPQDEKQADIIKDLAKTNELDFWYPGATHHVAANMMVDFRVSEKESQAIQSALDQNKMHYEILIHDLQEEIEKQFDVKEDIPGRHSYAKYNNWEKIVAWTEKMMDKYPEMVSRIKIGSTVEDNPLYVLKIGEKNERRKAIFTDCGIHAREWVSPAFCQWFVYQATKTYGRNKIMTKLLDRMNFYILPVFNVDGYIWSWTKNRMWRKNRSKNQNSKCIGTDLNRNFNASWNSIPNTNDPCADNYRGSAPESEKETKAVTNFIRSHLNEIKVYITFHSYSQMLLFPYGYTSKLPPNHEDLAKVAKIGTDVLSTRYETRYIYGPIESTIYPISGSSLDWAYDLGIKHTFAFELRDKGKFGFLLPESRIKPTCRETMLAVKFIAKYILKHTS
Nature of the assay: Compound was tested for inhibitory activity against carboxypeptidase A; Not active.

A short description of assay [2]: Compound was tested for inhibitory activity against Carboxypeptidase A.

Data on two compounds can be found in ChEMBL document CHEMBL1151589, “Synthesis and inhibitory activity of optically active 2-benzyl-3-mercaptopropanoic acid against carboxypeptidase A” (Bioorg Med Chem Lett, 1993).

Molecules are shown by their SMILES. pKi: −log10 of the molar value.

Regarding `O=C(O)[C@H](CS)Cc1ccccc1`, the Ki entry in assay [1] is “Not Active”.

Broadly, the pKi is −log10 of the Ki, conventionally taken in molar units. Read a high pKi as a low Ki. With `O=C(O)C(CS)Cc1ccccc1` (racemic), in assay [2], the pKi was 4.96.
